Test results reported in US12662465B2, “EGFR inhibitors” (Blueprint Medicines Corporation, priority 2021, dated 2026).
Where two headings read alike, the source gives them in different places.

Assays:
EGFR L858R = target: T1, EGFR L858R (Homo sapiens, UniProt P00533, L858R); assay: Biochemical EGFR inhibition assay (Caliper mobility shift), EGFR L858R; conditions: read-out: Enz EGFR_L858R IC50
T1 construct: purchased SignalChem E10-122BG

EGFR (d746-750) = target: T2, EGFR (d746-750) (Homo sapiens, UniProt P00533, DEL746-750); assay: Biochemical EGFR inhibition assay (Caliper mobility shift), EGFR (d746-750); conditions: read-out: Enz EGFR_Exon19-del746-750 IC50
T2 construct: purchased SignalChem E10-122JG
T2 sequence (P00533 with tags, fused parts or gaps DEL746-750 limits assumed): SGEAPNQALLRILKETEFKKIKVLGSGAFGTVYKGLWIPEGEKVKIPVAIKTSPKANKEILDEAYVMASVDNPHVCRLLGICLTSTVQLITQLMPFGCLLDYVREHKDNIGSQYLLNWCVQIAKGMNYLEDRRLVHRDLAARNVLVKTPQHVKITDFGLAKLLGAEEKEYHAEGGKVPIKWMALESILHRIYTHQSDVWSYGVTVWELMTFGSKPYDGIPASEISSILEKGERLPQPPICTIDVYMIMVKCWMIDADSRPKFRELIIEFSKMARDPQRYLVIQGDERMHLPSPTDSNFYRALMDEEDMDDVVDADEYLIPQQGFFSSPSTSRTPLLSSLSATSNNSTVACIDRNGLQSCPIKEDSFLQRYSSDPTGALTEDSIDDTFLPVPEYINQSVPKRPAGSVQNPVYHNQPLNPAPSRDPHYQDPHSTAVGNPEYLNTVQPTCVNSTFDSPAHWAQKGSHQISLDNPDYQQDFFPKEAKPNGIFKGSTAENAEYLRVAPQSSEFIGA

[1] = target: intracellular phosphorylation of EGFR (Tyr1068) in PC-9 cells (Ex19Del) (Homo sapiens, UniProt P00533, DEL746-750); assay: PC-9 pEGFR AlphaLISA assay; assay type: cell-based; conditions: 4 hours compound incubation, read-out: Ext pEGFR_PC-9 Ex19Del IC50
intracellular phosphorylation of EGFR (Tyr1068) in PC-9 cells (Ex19Del), sequence (P00533 with tags, fused parts or gaps DEL746-750): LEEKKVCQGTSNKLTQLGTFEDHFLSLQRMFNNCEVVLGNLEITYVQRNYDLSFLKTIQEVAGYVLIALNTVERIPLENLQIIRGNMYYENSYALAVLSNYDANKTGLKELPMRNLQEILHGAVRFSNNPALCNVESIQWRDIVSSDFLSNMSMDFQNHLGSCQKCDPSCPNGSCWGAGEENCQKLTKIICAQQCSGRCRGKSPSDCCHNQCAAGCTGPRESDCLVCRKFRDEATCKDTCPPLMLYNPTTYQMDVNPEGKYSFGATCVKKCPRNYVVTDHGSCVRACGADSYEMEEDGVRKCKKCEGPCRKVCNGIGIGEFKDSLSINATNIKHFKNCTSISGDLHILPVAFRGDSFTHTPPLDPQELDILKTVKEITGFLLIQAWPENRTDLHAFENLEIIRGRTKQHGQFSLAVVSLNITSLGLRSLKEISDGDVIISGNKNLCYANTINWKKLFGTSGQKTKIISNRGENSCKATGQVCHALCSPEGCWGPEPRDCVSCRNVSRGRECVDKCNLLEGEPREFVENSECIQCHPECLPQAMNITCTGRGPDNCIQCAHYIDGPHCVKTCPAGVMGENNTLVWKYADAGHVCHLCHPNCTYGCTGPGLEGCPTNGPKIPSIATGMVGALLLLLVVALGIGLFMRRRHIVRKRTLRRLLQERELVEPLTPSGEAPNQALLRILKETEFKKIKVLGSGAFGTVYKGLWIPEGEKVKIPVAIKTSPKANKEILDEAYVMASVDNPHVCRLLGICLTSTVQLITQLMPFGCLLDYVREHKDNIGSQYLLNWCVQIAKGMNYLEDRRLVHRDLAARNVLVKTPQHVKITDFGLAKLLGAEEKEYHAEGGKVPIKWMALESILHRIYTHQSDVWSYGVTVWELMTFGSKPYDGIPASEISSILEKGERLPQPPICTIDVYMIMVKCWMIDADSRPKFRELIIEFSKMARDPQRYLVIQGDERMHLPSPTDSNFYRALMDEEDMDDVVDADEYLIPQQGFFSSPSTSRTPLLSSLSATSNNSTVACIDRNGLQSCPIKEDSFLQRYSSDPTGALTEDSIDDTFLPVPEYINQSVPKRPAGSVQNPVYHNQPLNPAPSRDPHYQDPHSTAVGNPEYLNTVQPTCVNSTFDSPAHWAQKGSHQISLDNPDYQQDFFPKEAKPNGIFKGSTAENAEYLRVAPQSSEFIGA

[2] = 1.0 mM ATP or ATP Km, room temperature (25° C.)

T1 sequence (P00533 25-1210 L858R): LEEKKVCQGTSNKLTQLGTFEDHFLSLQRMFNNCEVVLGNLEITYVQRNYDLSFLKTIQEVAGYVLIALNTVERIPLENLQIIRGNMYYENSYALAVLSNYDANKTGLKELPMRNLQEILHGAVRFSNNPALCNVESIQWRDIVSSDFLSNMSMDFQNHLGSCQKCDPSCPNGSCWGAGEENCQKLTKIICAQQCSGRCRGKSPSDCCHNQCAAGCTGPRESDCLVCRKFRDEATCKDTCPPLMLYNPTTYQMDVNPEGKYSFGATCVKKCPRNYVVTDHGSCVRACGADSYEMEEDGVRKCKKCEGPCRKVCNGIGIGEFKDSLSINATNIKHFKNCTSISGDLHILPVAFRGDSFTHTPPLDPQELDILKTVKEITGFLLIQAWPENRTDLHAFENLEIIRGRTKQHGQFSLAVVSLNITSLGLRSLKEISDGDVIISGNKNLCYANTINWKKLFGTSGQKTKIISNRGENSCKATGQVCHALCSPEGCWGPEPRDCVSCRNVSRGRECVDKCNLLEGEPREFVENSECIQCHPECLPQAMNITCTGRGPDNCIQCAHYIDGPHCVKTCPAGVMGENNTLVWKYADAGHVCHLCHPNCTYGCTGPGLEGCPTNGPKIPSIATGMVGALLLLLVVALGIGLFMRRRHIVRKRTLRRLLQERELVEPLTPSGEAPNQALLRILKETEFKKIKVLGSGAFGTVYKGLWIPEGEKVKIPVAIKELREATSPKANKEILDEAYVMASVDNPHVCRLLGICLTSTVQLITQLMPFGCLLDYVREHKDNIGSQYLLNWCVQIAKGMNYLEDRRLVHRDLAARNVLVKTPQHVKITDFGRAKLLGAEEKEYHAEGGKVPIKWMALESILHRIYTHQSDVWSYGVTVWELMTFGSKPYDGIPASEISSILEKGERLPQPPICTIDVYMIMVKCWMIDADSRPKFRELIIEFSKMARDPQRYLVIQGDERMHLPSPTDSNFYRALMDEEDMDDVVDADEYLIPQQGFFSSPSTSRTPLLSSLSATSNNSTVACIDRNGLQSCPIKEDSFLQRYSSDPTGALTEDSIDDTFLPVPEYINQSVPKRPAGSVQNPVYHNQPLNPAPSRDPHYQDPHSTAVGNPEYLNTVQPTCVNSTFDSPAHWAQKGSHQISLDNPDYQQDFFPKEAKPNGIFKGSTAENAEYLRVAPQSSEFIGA

SMILES | IC50 (EGFR L858R) [nM] | IC50 (EGFR (d746-750)) [nM] | IC50 [1] [nM] | IC50 (EGFR L858R; [2]) [nM] | IC50 (EGFR (d746-750); [2]) [nM]
C[C@H](CN(C)C)Oc1cc(-c2cnn(C)c2)cc2ncnc(Nc3ccc4cccnc4c3)c12 [Example 13, (R)-5-((1-(dimethylamino)propan-2-yl)oxy)-7-(1-methyl-1H-pyrazol-4-yl)-N-(quinolin-7-yl)quinazolin-4-amine] | < 10 | < 10 | ≤ 10 | – | –
C[C@@H](Oc1cc(N2CC[C@@H](C(C)(C)O)C2)cc2ncnc(Nc3ccc4ncccc4c3F)c12)C1COC1 [Example 63, 2—((R)-1-(4-((5-fluoroquinolin-6-yl)amino)-5-((R)-1-(oxetan-3-yl)ethoxy)quinazolin-7-yl)pyrrolidin-3-yl)propan-2-ol] | < 10 | < 10 | ≤ 10 | – | –
C[C@H](Oc1cc(-c2cnn(C)c2)cc2ncnc(Nc3ccc4ncccc4c3F)c12)[C@@H]1CCCN1C (single isomer, unassigned) [Example 146] | – | – | ≤ 10 | < 10 | < 10
C[C@H](CN(C)C)Oc1cc(-c2cnn(C)c2)cc2ncnc(Nc3ccc4nnccc4c3F)c12 [Example 41, (R)—N-(5-((1-(dimethylamino)propan-2-yl)oxy)-7-(1-methyl-1H-pyrazol-4-yl)quinazolin-4-yl)-5-fluorocinnolin-6-amine] | > 50.1 | 10.1 to 50 | > 50.1 | – | –
C[C@H](O)[C@H](C)Oc1cc(-c2cnn(C)c2)cc2ncnc(Nc3ccc4ncccc4c3F)c12 (single isomer, unassigned) [Example 30, (2S,3S)-3-((4-((5-fluoroquinolin-6-yl)amino)-7-(1-methyl-1H-pyrazol-4-yl)quinazolin-5-yl)oxy)butan-2-ol or (2R,3R)-3-((4-((5-fluoroquinolin-6-yl)amino)-7-(1-methyl-1H-pyrazol-4-yl)quinazolin-5-yl)oxy)butan-2-ol] | – | – | ≤ 10 | < 10 | < 10
CNC[C@@H](C)Oc1cc(-c2cnn(C)c2)cc2ncnc(Nc3ccc4ncccc4c3F)c12 [Example 100, (R)—N-(5-fluoroquinolin-6-yl)-7-(1-methyl-1H-pyrazol-4-yl)-5-((1-(methylamino)propan-2-yl)oxy)quinazolin-4-amine] | 10.1 to 50 | 10.1 to 50 | 10.1 to 50 | – | –
C[C@H](CN(C)C)Oc1cc(N2CCCC2=O)cc2ncnc(Nc3ccc4ncccc4c3F)c12 [Example 96, (R)-1-(5-((1-(dimethylamino)propan-2-yl)oxy)-4-((5-fluoroquinolin-6-yl)amino)quinazolin-7-yl)pyrrolidin-2-one] | 10.1 to 50 | < 10 | ≤ 10 | – | –
C[C@H](Oc1cc(-c2cnn(C)c2)cc2ncnc(Nc3ccc4ncccc4c3F)c12)[C@@H]1CCCN1C (single isomer, unassigned) [Example 147] | – | – | ≤ 10 | < 10 | < 10
Cn1cc(-c2cc(O[C@@H]3CC[C@@H]3O)c3c(Nc4ccc5ncccc5c4F)ncnc3c2)cn1 (single isomer, unassigned) [Example 16, (1S,2R)-2-((4-((5-fluoroquinolin-6-yl)amino)-7-(1-methyl-1H-pyrazol-4-yl)quinazolin-5-yl)oxy)cyclobutan-1-ol or (1R,2S)-2-((4-((5-fluoroquinolin-6-yl)amino)-7-(1-methyl-1H-pyrazol-4-yl)quinazolin-5-yl)oxy)cyclobutan-1-ol] | – | – | ≤ 10 | < 10 | < 10
C[C@@H](Oc1cc(-c2cnn(C)c2)cc2ncnc(Nc3cc(F)c4ncccc4c3F)c12)C1COC1 [Example 9, (R)—N-(5,8-difluoroquinolin-6-yl)-7-(1-methyl-1H-pyrazol-4-yl)-5-(1-(oxetan-3-yl)ethoxy)quinazolin-4-amine] | < 10 | < 10 | ≤ 10 | – | –
CO[C@@H]1CCN(c2cc3ncnc(Nc4ccc5ncccc5c4F)c3c(O[C@H](C)CN(C)C)n2)C1 [Example 76, 5—(((R)-1-(dimethylamino)propan-2-yl)oxy)-N-(5-fluoroquinolin-6-yl)-7-((R)-3-methoxypyrrolidin-1-yl)pyrido[4,3-d]pyrimidin-4-amine] | < 10 | < 10 | ≤ 10 | – | –
CC(CN(C)C)Oc1cc(N2CC3CC(C2)O3)cc2ncnc(Nc3ccc4ncccc4c3)c12 (single isomer, unassigned) [Example 67, 7-(6-oxa-3-azabicyclo[3.1.1]heptan-3-yl)-5-(((R)-1-(dimethylamino)propan-2-yl)oxy)-N-(quinolin-6-yl)quinazolin-4-amine or 7-(6-oxa-3-azabicyclo[3.1.1]heptan-3-yl)-5-(((S)-1-(dimethylamino)propan-2-yl)oxy)-N-(quinolin-6-yl)quinazolin-4-amine] | 10.1 to 50 | 10.1 to 50 | 10.1 to 50 | – | –
C[C@H](Oc1cc(-c2cnn(C)c2)cc2ncnc(Nc3ccc4ncccc4c3F)c12)[C@@H]1CCCN1C (single isomer, unassigned) [Example 148] | – | – | > 50.1 | 10.1 to 50 | 10.1 to 50
C[C@H](CN(C)C)Oc1cc(N2CCCS2(=O)=O)cc2ncnc(Nc3ccc4ncccc4c3F)c12 [Example 95, (R)-2-(5-((1-(dimethylamino)propan-2-yl)oxy)-4-((5-fluoroquinolin-6-yl)amino)quinazolin-7-yl)isothiazolidine 1,1-dioxide] | 10.1 to 50 | < 10 | 10.1 to 50 | – | –
C[C@@H](Oc1cc(-c2cnn(C)c2)cc2ncnc(Nc3ccc4ncccc4c3F)c12)C1COC1 [Example 46, (R)—N-(5-fluoroquinolin-6-yl)-7-(1-methyl-1H-pyrazol-4-yl)-5-(1-(oxetan-3-yl)ethoxy)quinazolin-4-amine] | < 10 | < 10 | ≤ 10 | – | –
C[C@H](CN(C)C)Oc1cc(N2CCOC3(CC3)C2)cc2ncnc(Nc3ccc4ncccc4c3F)c12 [Example 91, (R)-5-((1-(dimethylamino)propan-2-yl)oxy)-N-(5-fluoroquinolin-6-yl)-7-(4-oxa-7-azaspiro[2.5]octan-7-yl)quinazolin-4-amine] | > 50.1 | 10.1 to 50 | > 50.1 | – | –
C[C@@H](Oc1cc(-c2cnn([C@@H](C)CO)c2)cc2ncnc(Nc3ccc4ncccc4c3F)c12)C1COC1 (single isomer, unassigned) [Example 121, (S)-2-(4-(4-((5-fluoroquinolin-6-yl)amino)-5-((R)-1-(oxetan-3-yl)ethoxy)quinazolin-7-yl)-1H-pyrazol-1-yl)propan-1-ol or (R)-2-(4-(4-((5-fluoroquinolin-6-yl)amino)-5-((R)-1-(oxetan-3-yl)ethoxy)quinazolin-7-yl)-1H-pyrazol-1-yl)propan-1-ol] | – | – | ≤ 10 | < 10 | < 10
C[C@H](Oc1cc(-c2cnn(C)c2)cc2ncnc(Nc3ccc4ncccc4c3F)c12)C1COC1 (single isomer, unassigned) [Example 2, (S)—N-(5-fluoroquinolin-6-yl)-7-(1-methyl-1H-pyrazol-4-yl)-5-(1-(oxetan-3-yl)ethoxy)quinazolin-4-amine or (R)—N-(5-fluoroquinolin-6-yl)-7-(1-methyl-1H-pyrazol-4-yl)-5-(1-(oxetan-3-yl)ethoxy)quinazolin-4-amine] | – | – | ≤ 10 | < 10 | < 10
C[C@@H](Oc1cc(N2CC[C@H](N(C)C)C2)cc2ncnc(Nc3ccc4ncccc4c3F)c12)C1COC1 [Example 80, 7—((S)-3-(dimethylamino)pyrrolidin-1-yl)-N-(5-fluoroquinolin-6-yl)-5-((R)-1-(oxetan-3-yl)ethoxy)quinazolin-4-amine] | < 10 | < 10 | ≤ 10 | – | –
Cc1cnn(-c2cc(O[C@H](C)CN(C)C)c3c(Nc4ccc5ncccc5c4F)ncnc3c2)c1 [Example 83, (R)-5-((1-(dimethylamino)propan-2-yl)oxy)-N-(5-fluoroquinolin-6-yl)-7-(4-methyl-1H-pyrazol-1-yl)quinazolin-4-amine] | < 10 | < 10 | ≤ 10 | – | –
C[C@H](Oc1cc(-c2cnn(C)c2)cc2ncnc(Nc3ccc4ncccc4c3F)c12)C1CCOCC1 [Example 20, (S)—N-(5-fluoroquinolin-6-yl)-7-(1-methyl-1H-pyrazol-4-yl)-5-(1-(tetrahydro-2H-pyran-4-yl)ethoxy)quinazolin-4-amine. or (R)—N-(5-fluoroquinolin-6-yl)-7-(1-methyl-1H-pyrazol-4-yl)-5-(1-(tetrahydro-2H-pyran-4-yl)ethoxy)quinazolin-4-amine] | – | – | ≤ 10 | < 10 | < 10
CN(C)C1(COc2cc(-c3cnn(C)c3)cc3ncnc(Nc4ccc5ncccc5c4F)c23)COC1 [Example 21, 5-((3-(dimethylamino)oxetan-3-yl)methoxy)-N-(5-fluoroquinolin-6-yl)-7-(1-methyl-1H-pyrazol-4-yl)quinazolin-4-amine] | 10.1 to 50 | < 10 | 10.1 to 50 | – | –
C[C@H](CN(C)C)Oc1cc(-n2cc(F)cn2)cc2ncnc(Nc3ccc4ncccc4c3F)c12 [Example 82, (R)-5-((1-(dimethylamino)propan-2-yl)oxy)-7-(4-fluoro-1H-pyrazol-1-yl)-N-(5-fluoroquinolin-6-yl)quinazolin-4-amine] | < 10 | < 10 | ≤ 10 | – | –
C[C@H](CN(C)C)Oc1cc(N2CC3CC(C2)O3)cc2ncnc(Nc3ccc4ncccc4c3F)c12 [Example 70, 7-(6-oxa-3-azabicyclo[3.1.1]heptan-3-yl)-5-(((R)-1-(dimethylamino)propan-2-yl)oxy)-N-(5-fluoroquinolin-6-yl)quinazolin-4-amine] | 10.1 to 50 | < 10 | ≤ 10 | – | –
